Laboratory results taken from US11440870B2, “Cannabidiolic acid esters compositions and uses thereof” (Yissum Research Development Company of the Hebrew …, priority 2017, dated 2022).

Tested on: locomotor activity of rats
Assay: Locomotor activity test after the anticipatory nausea test
Assay type: in vivo, male Sprague-Dawley rats
Details: 0.01 or 0.1 μg·kg−1 i.p.; 15 min test; ANOVA F(6, 39)=0.9, P>0.05
Method: For in vivo experiment 2, contextually elicited conditioned gaping (a model of anticipatory nausea) was measured using a distinctive conditioning chamber made of opaque black Plexiglass (22.5×26×20 cm) with an opaque lid that sat on a table with a clear glass top. A mirror beneath the chamber at a 45° angle facilitated viewing of the ventral surface of the rat to observe orofacial responses. The conditioning chamber was in a dark room next to a 25 W light source. A video camera that was fire-wired into a computer was focused on the mirror to record each rat's orofacial reactions during the 5 min test trial. The video tapes were later scored using ‘The Observer’ software. […]
To compare the potential of HU-580 and CBDA to reduce anticipatory nausea, the contextually elicited conditioned gaping paradigm was used (e.g. Limebeer et al., 2010; Rock et al., 2014). […] Pretreatments were injected 45 min before the rats were given an saline injection (20 mL·kg^−1 i.p.) and individually placed in the conditioning (contextual) chamber for 5 min, and orofacial responses were video recorded. […] The video tapes from the test trial were scored by an observer blind to the experimental conditions using ‘The Observer’ for the behaviors of gaping (large openings of the mouth and jaw, with lower incisors exposed). […]

C=C(C)[C@@H]1CCC(C)=C[C@H]1c1c(O)cc(CCCCC)c(C(=O)OC)c1O [HU-580, Cannabidiolic Acid Methyl Ester]
Distance moved in locomotor activity test: no significant effect on distance moved

C=C(C)[C@@H]1CCC(C)=C[C@H]1c1c(O)cc(CCCCC)c(C(=O)O)c1O [CBDA, Cannabidiolic acid]
Distance moved in locomotor activity test: no significant effect on distance moved
